Molecules are shown by their SMILES. Read-outs that look alike come from different tables or passages of the source.

One assay deals with BRAF (V600E) (Homo sapiens, UniProt P15056, V600E). The assay can be described thus: Kd for RAF kinases: BRAF (V600E). It is filed as binding.
Another assay has as its target BRAF (Homo sapiens, UniProt P15056). The assay can be described thus: Kd for RAF kinases: BRAF. It is filed as binding.
The target in a further assay is CRAF (Homo sapiens, UniProt P04049). Put plainly: Kd for RAF kinases: CRAF. It is filed as binding.
The subject of assay [1] is ERK 1,2 phosphorylation in A375 cells expressing V600E mutated BRAF. The assay can be described thus: HTRF assay for P-ERK determination in A375 cells (BRAF inhibition). The class given is cell-based. The settings on record: Homo sapiens, A-375, 1 h, read-out: pERK IC50 A375. From the text: DMEM no-phenol red medium supplemented with L-glutamine was purchased from (Thermo Fisher Scientific). Fetal bovine serum (FBS) was purchased from VWR. Advanced ERK phospho-T202/Y204 kit-10,000 tests was purchased from Cisbio cat #64AERPEH. A375 and HCT116 cells were originally obtained from ATCC and banked by the Roche repository.
A375 is a cellular cancer model expressing V600E mutated BRAF and HCT116 a cellular cancer model expressing WT BRAF. […] ERK 1,2 phosphorylation (terminal member of the phosphorylation cascade of the MAPK pathway) is hereafter reported as main readout for the activation status of the MAPK pathway. Prior to the assay, A375 and HCT116 cell lines are maintained in DMEM no-phenol red medium supplemented with 10% fetal bovine serum (FBS). […] Briefly, 8000 cells/well in 12 μl media/well are plated in the 384-well plate and left overnight in the incubator (at 37° C. with 5% CO2-humidified atmosphere), the following day the plate is treated in duplicate with test compounds, dabrafenib and PLX8394 (the latter two as controls) at the following final drug concentrations: 10 μM-3 μM-1 μM-0.3 μM-0.1 μM-0.03 μM-0.01 μM-0.003 μM-0.001 μM, all wells are subjected to DMSO normalization and drug incubation occurs for 1 hour. Then, 4 μl of a 4× lysis buffer supplied with the kit are added to the wells, the plate is then centrifuged for 30 second (300 rcf) and incubated on a plate shaker for 1 h at RT.
(§1) At the end of the incubation 4 μL/well of advanced P-ERK antibody solution (prepared according to manufacturer's instruction) followed by 4 μL/well of criptate P-ERK antibody solution (prepared according to manufacturer's instruction) (Cisbio cat #64AERPEH) are added to test wells.
(§2) In order to allow proper data normalization control wells non drug treated reported in the following table are always included in each plate (according to manufacturer's instruction):
(§3) The plate is then centrifuged at 300 rcf for 30 second, sealed to prevent evaporation and incubated overnight in the dark at room temperature.
(§4) The obtained fluorescence values are processed according to the formula Ratio=Signal (620 nm)/Signal (625 nm)*10000 then the average of the ratio on the blank is subtracted to all values.
Data are normalized in the case of A375 cells (BRAF inhibition) considering the average of the ratio (blank subtracted) derived by DMSO only treated cells as 100% and by considering the average of the ratio (blank subtracted) derived by 10 uM dabrafenib treated cells as 0%. Mean of the normalized points are fitted with sigmoidal curve and IC50 determined.

The subject of assay [2] is ERK 1,2 phosphorylation in HCT116 cells expressing WT BRAF. The assay can be described thus: HTRF assay for P-ERK determination in HCT116 cells (paradoxical BRAF activation). It is filed as cell-based. The settings on record: for Emax: Homo sapiens, HCT-116, read-out: Percentage of maximum paradox inducing effect from dabrafenib; for EC50: read-out: P-ERK EC50 conc. at which the compound induces p-ERK activation of 50% of that induced by dabrafenib (Positive control paradox inducer) HCT-116, HCT-116 cells, 1 hour drug incubation, not applicable = activation does not reach 50% of dabrafenib maximum.
From the text: DMEM no-phenol red medium supplemented with L-glutamine was purchased from (Thermo Fisher Scientific). Fetal bovine serum (FBS) was purchased from VWR. Advanced ERK phospho-T202/Y204 kit-10,000 tests was purchased from Cisbio cat #64AERPEH. A375 and HCT116 cells were originally obtained from ATCC and banked by the Roche repository. 384-well microplates were purchased from Greiner Bio-One, 384-well, (With Lid, HiBase, Low volume cat 784-080).
A375 is a cellular cancer model expressing V600E mutated BRAF and HCT116 a cellular cancer model expressing WT BRAF. First generation BRAF inhibitors such as e.g. dabrafenib induce a paradox effect on tumour cells in that they inhibit the growth of V600E mutated BRAF cells (such as e.g. A375), while they activate growth in WT BRAF cells (such as e.g. HCT 116). ERK 1,2 phosphorylation (terminal member of the phosphorylation cascade of the MAPK pathway) is hereafter reported as main readout for the activation status of the MAPK pathway. Prior to the assay, A375 and HCT116 cell lines are maintained in DMEM no-phenol red medium supplemented with 10% fetal bovine serum (FBS). Following compound treatment, P-ERK levels are determined by measuring FRET fluorescence signal induced by selective binding of 2 antibodies provided in the mentioned kit (Cisbio cat #64AERPEH) on ERK protein when phosphorylated at Thr202/Tyr204. Briefly, 8000 cells/well in 12 μl media/well are plated in the 384-well plate and left overnight in the incubator (at 37° C. with 5% CO2-humidified atmosphere), the following day the plate is treated in duplicate with test compounds, dabrafenib and PLX8394 (the latter two as controls) at the following final drug concentrations: 10 μM-3 μM-1 μM-0.3 μM-0.1 μM-0.03 μM-0.01 μM-0.003 μM-0.001 μM, all wells are subjected to DMSO normalization and drug incubation occurs for 1 hour. Then, 4 μl of a 4× lysis buffer supplied with the kit are added to the wells, the plate is then centrifuged for 30 second (300 rcf) and incubated on a plate shaker for 1 h at RT.
as §1, §2, §3
The plate is then analyzed and fluorescence emission value collected through a Pherastast FSX (BMG Labtech) apparatus at […].
as §4
Data are normalized in the case of HCT116 cells (BRAF activation) considering the average of the ratio (blank subtracted) derived by DMSO only treated cells as 0% and by considering the average of the ratio (blank subtracted) derived by dabrafenib treated cells at the concentration which provides the highest signal as 100%. Individual points are fitted with either sigmoidal or bell shape curves, and the percentage of activation compared to maximum dabrafenib-mediated activation is determined. The EC50 is the concentration at which activation equal to 50% of the maximum achieved by dabrafenib is obtained.
The Percentage of Maximum paradox inducing effect from dabrafenib is determined by evaluating the percentage at which the test compound induce its maximum P-ERK signal as percentage of the highest signal produced by dabrafenib within the dose range tested.
A general note: Time-resolved FRET reads energy transfer from a long-lived donor to a nearby acceptor.

CRAF, sequence (P04049 whole entry): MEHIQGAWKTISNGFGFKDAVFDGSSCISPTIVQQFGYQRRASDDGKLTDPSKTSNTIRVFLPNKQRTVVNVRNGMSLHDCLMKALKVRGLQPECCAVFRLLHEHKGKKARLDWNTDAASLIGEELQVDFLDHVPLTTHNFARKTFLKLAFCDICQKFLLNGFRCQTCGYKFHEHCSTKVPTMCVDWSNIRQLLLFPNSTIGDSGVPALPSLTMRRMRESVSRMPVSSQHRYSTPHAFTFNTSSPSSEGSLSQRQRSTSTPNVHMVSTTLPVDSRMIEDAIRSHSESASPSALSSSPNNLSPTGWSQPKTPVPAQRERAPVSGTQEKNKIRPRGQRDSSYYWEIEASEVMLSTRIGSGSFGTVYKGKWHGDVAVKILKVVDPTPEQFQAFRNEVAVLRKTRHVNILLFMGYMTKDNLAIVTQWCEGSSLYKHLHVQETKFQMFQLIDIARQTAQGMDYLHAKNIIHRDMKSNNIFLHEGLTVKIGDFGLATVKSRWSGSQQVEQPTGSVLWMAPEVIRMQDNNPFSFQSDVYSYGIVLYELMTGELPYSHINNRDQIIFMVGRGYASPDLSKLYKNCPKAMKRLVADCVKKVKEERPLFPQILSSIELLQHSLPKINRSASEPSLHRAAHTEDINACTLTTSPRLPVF
BRAF, sequence (P15056 whole entry): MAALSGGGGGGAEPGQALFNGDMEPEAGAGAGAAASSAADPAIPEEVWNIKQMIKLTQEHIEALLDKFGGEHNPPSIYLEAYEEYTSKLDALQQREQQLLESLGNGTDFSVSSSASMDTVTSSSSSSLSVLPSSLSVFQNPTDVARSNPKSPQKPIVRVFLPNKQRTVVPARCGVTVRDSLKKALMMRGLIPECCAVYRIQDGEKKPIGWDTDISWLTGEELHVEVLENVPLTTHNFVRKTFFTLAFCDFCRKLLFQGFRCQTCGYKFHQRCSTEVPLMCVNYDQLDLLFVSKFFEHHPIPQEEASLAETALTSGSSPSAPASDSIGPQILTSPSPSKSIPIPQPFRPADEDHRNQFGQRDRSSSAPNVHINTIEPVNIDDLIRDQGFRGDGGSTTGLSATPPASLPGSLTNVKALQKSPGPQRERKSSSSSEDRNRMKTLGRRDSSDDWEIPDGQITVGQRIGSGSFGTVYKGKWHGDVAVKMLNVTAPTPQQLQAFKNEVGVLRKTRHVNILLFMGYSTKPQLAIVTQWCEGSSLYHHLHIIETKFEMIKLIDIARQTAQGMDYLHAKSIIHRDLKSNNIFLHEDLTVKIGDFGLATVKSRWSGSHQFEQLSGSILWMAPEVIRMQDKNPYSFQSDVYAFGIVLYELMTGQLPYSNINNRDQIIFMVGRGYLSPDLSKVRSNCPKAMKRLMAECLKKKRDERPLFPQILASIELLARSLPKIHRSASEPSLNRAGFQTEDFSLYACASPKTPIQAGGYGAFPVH
BRAF (V600E), sequence (P15056 whole entry V600E): as the sequence (P15056 whole entry) above, with V600E counted along it

As usually defined, the Kd is the concentration at which binding is half-saturated. The IC50 is the concentration needed to halve the response being measured. Usually EC50 stands for the concentration at which the effect is half-maximal. With `Cn1cnc2ccc(Nc3c(Cl)ccc(NS(=O)(=O)N4CCCC4)c3C#N)cc2c1=O` [Example 14, N-[4-chloro-2-cyano-3-[(3-methyl-4-oxo-quinazolin-6-yl)amino]phenyl]pyrrolidine-1-sulfonamide], the dissociation constant (Kd) was 0.7 nM at BRAF (V600E) (read-out: Kd BRAF (V600E)), 1.4 nM on BRAF (read-out: Kd BRAF) and 1.5 nM on CRAF. In addition, the IC50 in assay [1] came to 13.7 nM. The Emax in assay [2] was determined as 74%. Moreover, the concentration giving a half-maximal response (EC50) in assay [2] amounted to 204 nM.

For the compound `Cn1cnc2ccc(Oc3c(F)ccc(NS(=O)(=O)N4CCCC4)c3C#N)cc2c1=O` [Example 15, N-[2-cyano-4-fluoro-3-(3-methyl-4-oxo-quinazolin-6-yl)oxy-phenyl]pyrrolidine-1-sulfonamide], the figures for the Kd at BRAF (V600E) (read-out: Kd BRAF (V600E)), at BRAF (read-out: Kd BRAF) and at CRAF were 0.9 nM, 0.4 nM and 0.8 nM, respectively. The IC50 in assay [1] was 1.6 nM. The Emax in assay [2] amounted to 63%. In addition, the 50% effective concentration (EC50) in assay [2] turned out to be 172 nM.

As to `Cn1cnc2ccc(Oc3c(F)ccc(NS(=O)(=O)C4CCCC4)c3C#N)cc2c1=O` [Example 16, N-[2-cyano-4-fluoro-3-(3-methyl-4-oxo-quinazolin-6-yl)oxy-phenyl]cyclopentanesulfonamide], the dissociation constant Kd on BRAF (V600E) is 1.9 nM; at BRAF, 1 nM; at CRAF it was 0.7 nM. Besides, the IC50 in assay [1] was determined as 2.3 nM. Also, the Emax in assay [2] was determined as 70%. In addition, in assay [2], the EC50 amounted to 152 nM.

Take `CN(C)S(=O)(=O)Nc1ccc(F)c(Oc2ccc3ncn(C)c(=O)c3c2)c1C#N` [Example 17, 6-[2-cyano-3-(dimethylsulfamoylamino)-6-fluoro-phenoxy]-3-methyl-4-oxo-quinazoline]: the dissociation constant Kd turned out to be 4.3 nM at BRAF (V600E), 1.7 nM on BRAF and 3 nM on CRAF. Also, the IC50 in assay [1] was found to be 2.6 nM. For the same compound, the Emax in assay [2] was determined as 71%. Further, the EC50 in assay [2] is 970 nM.

For the origin of these results see patent US20220298145A1, “BRAF INHIBITORS AS PARADOX BREAKERS” (Hoffmann-La Roche Inc., priority 2019, published 2022).
